Where “and” joins values, the source holds several entries; their conditions need not be identical. Equal entries are not always repeated.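 Briefly, cells in 96-well plates were exposed to five compound concentrations for 48 h, and endpoints were estimated by linear interpolation. The concentration for 50% growth inhibition is given as GI50. Definition used: TGI = concentration required for complete inhibition of growth.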
Key:
Test in all cases: NCI anticancer screen, dose series, 48 h
[1] = tested on: ACHN renal
[2] = tested on: HCT-15 colon
[3] = tested on: HOP-62 NSCLC
[4] = tested on: LOX IMVI melanoma
[5] = tested on: NCI-H226 lung
[6] = tested on: NCI-H23 lung
[7] = tested on: RPMI-8226 leukemia
[8] = tested on: SF-539 CNS
[9] = tested on: TK-10 renal
[10] = tested on: UO-31 renal

SMILES	TGI [1]	TGI [2]	TGI [3]	TGI [4]	TGI [5]	TGI [6]	TGI [7]	TGI [8]	TGI [9]	TGI [10]	GI50 [1]	GI50 [2]	GI50 [3]	GI50 [4]	GI50 [5]	GI50 [6]	GI50 [7]	GI50 [8]	GI50 [9]	GI50 [10]
Cc1c(C(=O)CC(=O)C(=O)Nc2ccc(Cl)c(Cl)c2)[n+](=O)c2ccccc2n1[O-]	> 100 µM	48.2 µM	> 100 µM	53.2 µM	> 100 µM	96 µM	45.7 µM	57.5 µM	> 100 µM	> 100 µM	–	–	–	–	–	–	–	–	–	–
CCCc1cc2cc(-n3nc(C)c4c3CC(C)(C)CC4=O)cc(NC3CCC(O)CC3)c2c(=O)[nH]1 (centres undefined)	> 100 µM	> 100 µM	> 100 µM	1.07 µM	> 100 µM	> 100 µM	14.9 µM	> 100 µM	> 100 µM	> 100 µM	0.0712 µM	0.167 µM	0.129 µM	0.116 µM	5.36 µM	0.0584 µM	0.465 µM	0.782 µM	0.0964 µM	0.146 µM
ClC1CCC2OOC1O2 (centres undefined)	> 100 µM	> 100 µM	> 100 µM	> 100 µM	> 100 µM	> 100 µM	> 100 µM	> 100 µM	> 100 µM	> 100 µM	–	–	–	–	–	–	–	–	–	–
COc1ccc(N(CC(=O)NCCC[Te]c2ccccc2)C(=O)CCSC2=C(C)C(=O)c3ccccc3C2=O)cc1	3.47 µM	3.21 µM	1.58 µM	3.54 µM	–	2.83 µM	5.66 µM	3.65 µM	8.01 µM	2.45 µM	1.57 µM	0.673 µM	0.582 µM	1.5 µM	–	0.623 µM	1.02 µM	1.88 µM	3.25 µM	0.437 µM
O=c1c2ccccc2nc(-c2ccc(Br)cc2)n1NC1OC(CO)C(O)C(O)C1O (centres undefined)	> 100 µM	> 100 µM	> 100 µM	–	> 100 µM	> 100 µM	> 100 µM	> 100 µM	> 100 µM	> 100 µM	–	–	–	–	–	–	–	–	–	–
Cc1cccc2c(N=Nc3ccc(S(N)(=O)=O)cc3)c(O)[nH]c12	> 25 µM	> 25 µM	> 25 µM	> 25 µM	> 25 µM	> 25 µM	> 25 µM	> 25 µM	> 25 µM	> 25 µM	> 25 µM	> 25 µM	> 25 µM	> 25 µM	> 25 µM	> 25 µM	> 25 µM	> 25 µM	> 25 µM	> 25 µM
CCC1=C(C)/C(=C/c2[nH]c(CBr)c(CC)c2C)N=C1CBr	–	27.2 µM	34.8 µM	> 100 µM	–	46.7 µM	36.7 µM	38.2 µM	37.6 µM	15.8 µM	–	–	–	–	–	–	–	–	–	–
Cc1c2c(nn1C(=O)c1nn(-c3ccc(Cl)cc3)cc1O)-c1ccccc1CC2	> 100 µM	> 100 µM	> 100 µM	> 100 µM	> 25.7 µM	> 100 µM	–	28.1 µM	> 100 µM	> 100 µM	0.0456 µM	0.0496 µM	0.0432 µM	0.0722 µM	0.0968 µM	0.0411 µM	0.0432 µM	0.041 µM	0.0429 µM	0.0603 µM
COc1cc2ccc3c4c(OC)cc(OC)c(OC)c4c(=O)n(C)c3c2cc1OC	16.7 µM and > 44.7 µM	–	7.11 µM and > 43.5 µM	3.8 µM	> 42 µM	16.7 µM and > 46 µM	2.15 µM and 1.65 µM	10.5 µM and > 47.4 µM	> 54.6 µM	> 48.9 µM	4.88 µM	1.87 µM	1.4 µM	1.53 µM	–	2.09 µM	0.245 µM	2.74 µM	> 16.7 µM	–
N#CC(=S)Nc1ccc(Cl)c(Cl)c1	82.5 µM	49.6 µM	99.5 µM	66.2 µM	60.5 µM	> 59.2 µM	13.4 µM	48.5 µM	> 84.6 µM	51.6 µM	–	–	–	–	–	–	–	–	–	7.63 µM
O=[N+]([O-])c1cc(CCl)ccc1CCl	3.09 µM	3.64 µM	2.93 µM	4.12 µM	11 µM	5.1 µM	3.91 µM	7.14 µM	8.23 µM	3.18 µM	–	–	–	–	–	–	–	–	–	–
COC(=O)/C(C#N)=C1\CCC(O)N1C (centres undefined)	> 100 µM	–	> 100 µM	> 100 µM	> 100 µM	> 100 µM	> 100 µM	> 100 µM	> 100 µM	> 100 µM	–	–	–	–	–	–	–	–	–	–
COC(=O)C(C(=O)C(=O)NC1=C(Cl)C(=O)c2ccccc2C1=O)c1csc(-n2nc(-c3ccccc3)cc2-c2ccccc2)n1 (centres undefined)	> 100 µM	> 100 µM	> 100 µM	> 100 µM	> 100 µM	> 100 µM	> 100 µM	–	> 100 µM	> 100 µM	–	–	–	–	–	–	–	–	–	–
COc1ccc(C(c2ccc(C(C)C)cc(=O)c2O)c2ccc3cccnc3c2O)cc1 (centres undefined)	7.53 µM	14.5 µM	2.29 µM	> 100 µM	4.38 µM	1.58 µM	23.6 µM	2.29 µM	–	1.78 µM	–	–	–	–	–	–	–	–	–	–
CCc1ccccc1NC(=O)CCc1n[nH]c(=S)o1	> 100 µM	36.8 µM	> 100 µM	–	> 100 µM	> 100 µM	> 100 µM	> 100 µM	> 100 µM	> 100 µM	–	–	–	–	–	–	–	–	–	–
CC(=O)OCc1cc(OC(C)=O)cnc1COC(C)=O	> 100 µM	> 100 µM	> 100 µM	> 100 µM	> 100 µM	> 100 µM	–	> 100 µM	> 100 µM	> 100 µM	–	–	–	–	–	–	–	–	–	–
COC(=O)C1=CN=C(C(=O)OC)NN1	> 100 µM	> 100 µM	> 100 µM	–	> 100 µM	> 100 µM	> 100 µM	> 100 µM	> 100 µM	> 100 µM	–	–	–	–	–	–	–	–	–	–
Cc1ccc(S(=O)(=O)/N=c2\ssc(Nc3ccccc3)c2Cl)cc1	22.5 µM	34.4 µM	> 50 µM	20.9 µM	> 50 µM	27.1 µM	26.8 µM	–	22.8 µM	> 50 µM	9.58 µM	11.9 µM	23.6 µM	10.2 µM	19.2 µM	11 µM	7.77 µM	–	8.21 µM	21.3 µM

Source: PubChem BioAssay (NCI)
